Measurements taken from ChEMBL document CHEMBL1155237, “Selective inhibitors of the mutant B-Raf pathway: discovery of a potent and orally bioavailable aminoisoquinoline” (J Med Chem, 2009).

Experiments:
Mus musculus = experiment: Inhibition of ERK phosphorylation in human A375 SQ2 cells xenografted CD1 mouse at 2 mg/kg, po qd after 6 hrs; type: functional; conditions: CD1, A-375, 6 h
[1] = biological target: Tyrosine-protein kinase Lck (Homo sapiens, UniProt P06239); experiment: Inhibition of LCK
[2] = biological target: Maternal embryonic leucine zipper kinase (Homo sapiens) (UniProt Q14680); experiment: Inhibition of MELK assessed as enzyme activity at 1 uM relative to untreated control; parameters: scale not given: the % may be the effect or the level left
Maternal embryonic leucine zipper kinase (Homo sapiens), sequence (Q14680 whole entry, looked up): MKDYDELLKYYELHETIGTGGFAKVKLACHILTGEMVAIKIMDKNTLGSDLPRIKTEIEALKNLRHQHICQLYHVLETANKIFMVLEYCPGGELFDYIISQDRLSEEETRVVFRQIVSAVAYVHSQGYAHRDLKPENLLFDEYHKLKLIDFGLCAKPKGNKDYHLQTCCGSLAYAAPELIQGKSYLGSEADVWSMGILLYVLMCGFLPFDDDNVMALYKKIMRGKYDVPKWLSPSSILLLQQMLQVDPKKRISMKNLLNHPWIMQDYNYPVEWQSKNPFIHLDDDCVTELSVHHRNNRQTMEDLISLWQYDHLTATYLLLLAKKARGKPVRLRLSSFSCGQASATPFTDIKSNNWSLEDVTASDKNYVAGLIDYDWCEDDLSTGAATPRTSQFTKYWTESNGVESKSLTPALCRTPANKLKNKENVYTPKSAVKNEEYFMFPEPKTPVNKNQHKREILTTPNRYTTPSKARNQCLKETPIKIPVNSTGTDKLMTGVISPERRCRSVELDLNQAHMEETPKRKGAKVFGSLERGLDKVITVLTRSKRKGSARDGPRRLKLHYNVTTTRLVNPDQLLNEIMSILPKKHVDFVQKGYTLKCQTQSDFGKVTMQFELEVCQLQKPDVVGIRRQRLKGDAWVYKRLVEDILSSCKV

[3] = biological target: Serine/threonine-protein kinase 4 (Homo sapiens) (UniProt Q13043); experiment: Inhibition of MST1 assessed as enzyme activity at 1 uM relative to untreated control; parameters: scale not given: the % may be the effect or the level left
[4] = biological target: Mitogen-activated protein kinase 13 (Homo sapiens) (UniProt O15264); experiment: Inhibition of p38delta assessed as enzyme activity at 1 uM relative to untreated control; parameters: scale not given: the % may be the effect or the level left
Mitogen-activated protein kinase 13 (Homo sapiens), sequence (O15264 whole entry): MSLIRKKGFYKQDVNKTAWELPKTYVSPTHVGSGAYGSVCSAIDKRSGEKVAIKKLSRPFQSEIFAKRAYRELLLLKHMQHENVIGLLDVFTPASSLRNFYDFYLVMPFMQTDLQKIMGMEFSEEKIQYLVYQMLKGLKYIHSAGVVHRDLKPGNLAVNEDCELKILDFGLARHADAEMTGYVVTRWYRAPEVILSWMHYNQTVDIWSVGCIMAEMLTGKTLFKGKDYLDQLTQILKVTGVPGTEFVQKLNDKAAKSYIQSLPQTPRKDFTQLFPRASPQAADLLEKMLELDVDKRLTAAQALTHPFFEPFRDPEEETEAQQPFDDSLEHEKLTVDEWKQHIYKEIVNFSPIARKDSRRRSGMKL

[5] = biological target: Mitogen-activated protein kinase 9 (Homo sapiens) (UniProt P45984); experiment: Inhibition of JNK2 assessed as enzyme activity at 1 uM relative to untreated control; parameters: scale not given: the % may be the effect or the level left
[6] = biological target: Mast/stem cell growth factor receptor Kit (Homo sapiens) (UniProt P10721); experiment: Inhibition of KIT assessed as enzyme activity at 1 uM relative to untreated control; parameters: scale not given: the % may be the effect or the level left
Mast/stem cell growth factor receptor Kit (Homo sapiens), sequence (P10721 whole entry): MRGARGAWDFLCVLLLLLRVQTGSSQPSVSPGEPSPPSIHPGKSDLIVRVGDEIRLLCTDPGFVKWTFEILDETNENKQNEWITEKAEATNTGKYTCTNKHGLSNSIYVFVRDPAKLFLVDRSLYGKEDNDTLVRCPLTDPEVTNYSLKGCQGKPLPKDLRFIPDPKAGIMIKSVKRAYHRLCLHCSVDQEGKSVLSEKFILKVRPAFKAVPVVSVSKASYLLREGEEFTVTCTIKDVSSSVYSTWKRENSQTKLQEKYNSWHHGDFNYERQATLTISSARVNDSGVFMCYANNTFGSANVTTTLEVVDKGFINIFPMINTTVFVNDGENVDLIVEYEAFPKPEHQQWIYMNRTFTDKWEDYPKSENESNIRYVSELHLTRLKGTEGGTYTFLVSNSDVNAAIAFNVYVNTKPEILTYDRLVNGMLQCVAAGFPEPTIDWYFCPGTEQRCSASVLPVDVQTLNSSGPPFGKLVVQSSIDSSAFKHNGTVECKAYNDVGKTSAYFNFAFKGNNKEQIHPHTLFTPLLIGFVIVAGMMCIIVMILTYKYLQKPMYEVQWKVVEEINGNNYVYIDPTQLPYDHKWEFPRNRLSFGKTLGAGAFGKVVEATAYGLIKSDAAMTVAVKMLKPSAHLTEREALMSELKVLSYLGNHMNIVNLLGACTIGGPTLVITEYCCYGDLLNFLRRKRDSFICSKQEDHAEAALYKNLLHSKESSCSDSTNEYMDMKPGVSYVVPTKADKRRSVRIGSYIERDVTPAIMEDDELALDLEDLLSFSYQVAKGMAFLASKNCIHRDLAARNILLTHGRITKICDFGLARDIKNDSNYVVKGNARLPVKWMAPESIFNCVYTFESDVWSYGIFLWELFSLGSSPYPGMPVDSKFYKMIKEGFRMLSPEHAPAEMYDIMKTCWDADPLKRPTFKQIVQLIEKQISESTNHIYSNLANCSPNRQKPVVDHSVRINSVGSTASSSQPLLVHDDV

[7] = biological target: Tyrosine-protein kinase receptor UFO (Homo sapiens) (UniProt P30530); experiment: Inhibition of AXL assessed as enzyme activity at 1 uM relative to untreated control; parameters: scale not given: the % may be the effect or the level left
[8] = biological target: Calcium/calmodulin-dependent protein kinase type II subunit beta (Homo sapiens) (UniProt Q13554); experiment: Inhibition of CAMK2B assessed as enzyme activity at 1 uM relative to untreated control; parameters: scale not given: the % may be the effect or the level left
[9] = biological target: Calcium/calmodulin-dependent protein kinase kinase 1 (Homo sapiens) (UniProt Q8N5S9); experiment: Inhibition of CAMKK1 assessed as enzyme activity at 1 uM relative to untreated control; parameters: scale not given: the % may be the effect or the level left
Calcium/calmodulin-dependent protein kinase kinase 1 (Homo sapiens), sequence (Q8N5S9 whole entry, looked up): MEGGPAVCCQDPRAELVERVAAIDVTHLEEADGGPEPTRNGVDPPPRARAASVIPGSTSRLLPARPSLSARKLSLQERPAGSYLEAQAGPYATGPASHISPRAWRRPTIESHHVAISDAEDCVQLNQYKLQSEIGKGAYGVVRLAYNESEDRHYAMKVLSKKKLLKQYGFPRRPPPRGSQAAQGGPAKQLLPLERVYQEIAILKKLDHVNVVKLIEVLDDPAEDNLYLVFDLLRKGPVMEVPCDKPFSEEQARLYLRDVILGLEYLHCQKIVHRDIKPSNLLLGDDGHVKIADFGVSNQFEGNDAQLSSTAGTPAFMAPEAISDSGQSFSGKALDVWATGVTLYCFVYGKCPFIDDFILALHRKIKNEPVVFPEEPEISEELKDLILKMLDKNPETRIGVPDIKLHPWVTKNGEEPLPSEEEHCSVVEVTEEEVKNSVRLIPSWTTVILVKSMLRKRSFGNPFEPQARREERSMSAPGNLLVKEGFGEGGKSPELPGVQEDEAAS

[10] = biological target: Serine/threonine-protein kinase D3 (Homo sapiens) (UniProt O94806); experiment: Inhibition of PRKD3 assessed as enzyme activity at 1 uM relative to untreated control; parameters: scale not given: the % may be the effect or the level left
Serine/threonine-protein kinase D3 (Homo sapiens), sequence (O94806 whole entry): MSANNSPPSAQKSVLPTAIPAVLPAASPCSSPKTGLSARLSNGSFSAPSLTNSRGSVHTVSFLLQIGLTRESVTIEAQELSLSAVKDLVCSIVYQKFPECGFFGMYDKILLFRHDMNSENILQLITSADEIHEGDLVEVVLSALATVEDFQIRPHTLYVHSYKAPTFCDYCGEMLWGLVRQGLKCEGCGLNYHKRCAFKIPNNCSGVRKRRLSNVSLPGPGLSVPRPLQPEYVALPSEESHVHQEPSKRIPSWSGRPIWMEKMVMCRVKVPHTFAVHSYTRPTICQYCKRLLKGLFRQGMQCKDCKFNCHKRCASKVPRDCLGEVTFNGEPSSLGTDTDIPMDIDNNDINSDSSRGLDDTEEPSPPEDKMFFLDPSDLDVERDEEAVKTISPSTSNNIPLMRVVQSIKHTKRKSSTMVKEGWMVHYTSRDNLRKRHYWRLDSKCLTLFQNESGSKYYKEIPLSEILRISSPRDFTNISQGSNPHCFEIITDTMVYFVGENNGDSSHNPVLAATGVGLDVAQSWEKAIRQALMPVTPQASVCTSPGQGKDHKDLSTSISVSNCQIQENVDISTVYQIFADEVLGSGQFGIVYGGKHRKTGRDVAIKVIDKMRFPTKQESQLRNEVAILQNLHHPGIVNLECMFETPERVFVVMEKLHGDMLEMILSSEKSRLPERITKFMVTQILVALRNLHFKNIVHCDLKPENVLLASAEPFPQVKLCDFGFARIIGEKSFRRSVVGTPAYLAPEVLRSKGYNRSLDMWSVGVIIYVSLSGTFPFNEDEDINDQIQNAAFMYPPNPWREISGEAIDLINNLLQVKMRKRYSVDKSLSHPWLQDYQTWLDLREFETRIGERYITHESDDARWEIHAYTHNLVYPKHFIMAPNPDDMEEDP

[11] = biological target: Interferon-induced, double-stranded RNA-activated protein kinase (Homo sapiens) (UniProt P19525); experiment: Inhibition of PRKR assessed as enzyme activity at 1 uM relative to untreated control; parameters: scale not given: the % may be the effect or the level left
[12] = biological target: Serine/threonine-protein kinase RIO3 (Homo sapiens) (UniProt O14730); experiment: Inhibition of RIOK3 assessed as enzyme activity at 1 uM relative to untreated control; parameters: scale not given: the % may be the effect or the level left
[13] = biological target: SRSF protein kinase 2 (Homo sapiens) (UniProt P78362); experiment: Inhibition of SRPK2 assessed as enzyme activity at 1 uM relative to untreated control; parameters: scale not given: the % may be the effect or the level left
[14] = system: Receptor-type tyrosine-protein kinase FLT3 (Homo sapiens), P36888 [N841I]; experiment: Inhibition of FLT3 N841I mutant assessed as enzyme activity at 1 uM relative to untreated control; parameters: scale not given: the % may be the effect or the level left
[15] = biological target: Insulin-like growth factor 1 receptor (Homo sapiens) (UniProt P08069); experiment: Inhibition of IGF1R assessed as enzyme activity at 1 uM relative to untreated control; parameters: scale not given: the % may be the effect or the level left
[16] = biological target: Death-associated protein kinase 1 (Homo sapiens) (UniProt P53355); experiment: Inhibition of DAPK1 assessed as enzyme activity at 1 uM relative to untreated control; parameters: scale not given: the % may be the effect or the level left
[17] = biological target: Death-associated protein kinase 2 (Homo sapiens) (UniProt Q9UIK4); experiment: Inhibition of DAPK2 assessed as enzyme activity at 1 uM relative to untreated control; parameters: scale not given: the % may be the effect or the level left
[18] = biological target: Serine/threonine-protein kinase DCLK1 (Homo sapiens) (UniProt O15075); experiment: Inhibition of DCAMKL1 assessed as enzyme activity at 1 uM relative to untreated control; parameters: scale not given: the % may be the effect or the level left
[19] = biological target: Epidermal growth factor receptor (Homo sapiens) (UniProt P04626+P00533+Q15303+P21860); experiment: Inhibition of EGFR E746-A750del mutant assessed as enzyme activity at 1 uM relative to untreated control; type: protein assay; parameters: scale not given: the % may be the effect or the level left
[20] = biological target: Serine/threonine-protein kinase 33 (Homo sapiens) (UniProt Q9BYT3); experiment: Inhibition of STK33 assessed as enzyme activity at 1 uM relative to untreated control; parameters: scale not given: the % may be the effect or the level left
Serine/threonine-protein kinase 33 (Homo sapiens), sequence (Q9BYT3 whole entry, looked up): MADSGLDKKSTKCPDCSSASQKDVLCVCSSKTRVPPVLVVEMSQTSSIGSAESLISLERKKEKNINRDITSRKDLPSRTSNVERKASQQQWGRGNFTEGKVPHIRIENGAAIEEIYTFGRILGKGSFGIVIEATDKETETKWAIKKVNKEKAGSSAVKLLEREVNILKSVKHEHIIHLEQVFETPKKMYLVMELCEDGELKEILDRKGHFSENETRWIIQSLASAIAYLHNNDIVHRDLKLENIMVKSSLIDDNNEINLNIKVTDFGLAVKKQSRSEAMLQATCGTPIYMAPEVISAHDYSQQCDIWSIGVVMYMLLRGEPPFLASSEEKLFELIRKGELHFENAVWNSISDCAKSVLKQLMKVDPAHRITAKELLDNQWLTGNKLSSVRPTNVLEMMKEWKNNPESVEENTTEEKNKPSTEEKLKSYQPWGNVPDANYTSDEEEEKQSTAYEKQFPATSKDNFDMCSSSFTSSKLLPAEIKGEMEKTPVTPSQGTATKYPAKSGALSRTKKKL

A-375 = experiment: Antitumor activity against human A375 SQ2 cells xenografted in CD1 mouse assessed as regression of tumor growth at 5 mg/kg, po qd for 14 days; type: functional
[21] = system: Tyrosine-protein kinase ABL1 (Homo sapiens), P00519 [M351T]; experiment: Inhibition of ABL1 M351T mutant assessed as enzyme activity at 1 uM relative to untreated control; parameters: scale not given: the % may be the effect or the level left
[22] = system: Tyrosine-protein kinase ABL1 (Homo sapiens), P00519 [Q252H]; experiment: Inhibition of ABL1 Q252H mutant assessed as enzyme activity at 1 uM relative to untreated control; parameters: scale not given: the % may be the effect or the level left
[23] = biological target: Activin receptor type-2B (Homo sapiens) (UniProt Q13705); experiment: Inhibition of ACVR2B assessed as enzyme activity at 1 uM relative to untreated control; parameters: scale not given: the % may be the effect or the level left
[24] = biological target: RAC-alpha serine/threonine-protein kinase (Homo sapiens) (UniProt P31749); experiment: Inhibition of AKT1 assessed as enzyme activity at 1 uM relative to untreated control; parameters: scale not given: the % may be the effect or the level left
[25] = biological target: RAC-beta serine/threonine-protein kinase (Homo sapiens) (UniProt P31751); experiment: Inhibition of AKT2 assessed as enzyme activity at 1 uM relative to untreated control; parameters: scale not given: the % may be the effect or the level left
[26] = biological target: RAC-gamma serine/threonine-protein kinase (Homo sapiens) (UniProt Q9Y243); experiment: Inhibition of AKT3 assessed as enzyme activity at 1 uM relative to untreated control; parameters: scale not given: the % may be the effect or the level left
[27] = system: Phosphatidylinositol 4,5-bisphosphate 3-kinase catalytic subunit alpha isoform (Homo sapiens), P42336 [E545K]; experiment: Inhibition of PIK3CA E545K mutant assessed as enzyme activity at 1 uM relative to untreated control; parameters: scale not given: the % may be the effect or the level left
Phosphatidylinositol 4,5-bisphosphate 3-kinase catalytic subunit alpha isoform (Homo sapiens), P42336 [E545K], sequence (P42336 whole entry E545K, canonical isoform): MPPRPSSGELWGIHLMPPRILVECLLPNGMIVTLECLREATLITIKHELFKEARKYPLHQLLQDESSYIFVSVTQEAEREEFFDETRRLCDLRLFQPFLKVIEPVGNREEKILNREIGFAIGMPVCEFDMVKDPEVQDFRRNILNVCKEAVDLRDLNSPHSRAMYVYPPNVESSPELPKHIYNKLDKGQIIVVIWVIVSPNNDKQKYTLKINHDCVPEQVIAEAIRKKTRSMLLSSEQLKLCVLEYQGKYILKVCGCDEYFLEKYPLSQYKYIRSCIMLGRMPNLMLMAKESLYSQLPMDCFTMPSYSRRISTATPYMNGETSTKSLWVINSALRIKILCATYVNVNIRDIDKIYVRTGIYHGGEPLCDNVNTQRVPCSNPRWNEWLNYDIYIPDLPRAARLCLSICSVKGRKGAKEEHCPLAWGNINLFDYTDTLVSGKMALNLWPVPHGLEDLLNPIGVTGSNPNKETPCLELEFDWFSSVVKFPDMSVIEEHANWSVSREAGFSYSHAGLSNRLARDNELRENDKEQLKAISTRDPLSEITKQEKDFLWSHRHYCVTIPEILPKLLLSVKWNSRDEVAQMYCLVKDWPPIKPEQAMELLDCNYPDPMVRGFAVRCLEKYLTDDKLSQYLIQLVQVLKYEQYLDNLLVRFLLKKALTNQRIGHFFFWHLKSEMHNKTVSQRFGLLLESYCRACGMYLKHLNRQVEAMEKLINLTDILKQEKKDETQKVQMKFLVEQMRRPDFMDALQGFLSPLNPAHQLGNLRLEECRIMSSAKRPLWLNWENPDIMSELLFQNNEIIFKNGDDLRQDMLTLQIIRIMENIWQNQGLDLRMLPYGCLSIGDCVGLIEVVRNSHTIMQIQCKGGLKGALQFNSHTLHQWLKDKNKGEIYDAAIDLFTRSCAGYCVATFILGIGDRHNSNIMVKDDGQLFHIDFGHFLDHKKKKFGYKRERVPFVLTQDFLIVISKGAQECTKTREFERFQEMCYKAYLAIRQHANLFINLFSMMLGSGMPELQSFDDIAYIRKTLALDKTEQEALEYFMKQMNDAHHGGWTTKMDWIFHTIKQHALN

[28] = biological target: Membrane-associated tyrosine- and threonine-specific cdc2-inhibitory kinase (Homo sapiens) (UniProt Q99640); experiment: Inhibition of PKMYT1 assessed as enzyme activity at 1 uM relative to untreated control; parameters: scale not given: the % may be the effect or the level left
[29] = biological target: Serine/threonine-protein kinase N1 (Homo sapiens) (UniProt Q16512); experiment: Inhibition of PKN1 assessed as enzyme activity at 1 uM relative to untreated control; parameters: scale not given: the % may be the effect or the level left
[30] = biological target: Serine/threonine-protein kinase PLK3 (Homo sapiens) (UniProt Q9H4B4); experiment: Inhibition of PLK3 assessed as enzyme activity at 1 uM relative to untreated control; parameters: scale not given: the % may be the effect or the level left
[31] = biological target: Serine/threonine-protein kinase TAO1 (Homo sapiens) (UniProt Q7L7X3); experiment: Inhibition of TAOK1 assessed as enzyme activity at 1 uM relative to untreated control; parameters: scale not given: the % may be the effect or the level left
[32] = biological target: Serine/threonine-protein kinase TAO3 (Homo sapiens) (UniProt Q9H2K8); experiment: Inhibition of TAOK3 assessed as enzyme activity at 1 uM relative to untreated control; parameters: scale not given: the % may be the effect or the level left
[33] = biological target: Serine/threonine-protein kinase tousled-like 2 (Homo sapiens) (UniProt Q86UE8); experiment: Inhibition of TLK2 assessed as enzyme activity at 1 uM relative to untreated control; parameters: scale not given: the % may be the effect or the level left
[34] = biological target: Tyrosine-protein kinase TXK (Homo sapiens) (UniProt P42681); experiment: Inhibition of TXK assessed as enzyme activity at 1 uM relative to untreated control; parameters: scale not given: the % may be the effect or the level left
[35] = biological target: Serine/threonine-protein kinase ULK3 (Homo sapiens) (UniProt Q6PHR2); experiment: Inhibition of ULK3 assessed as enzyme activity at 1 uM relative to untreated control; parameters: scale not given: the % may be the effect or the level left

Cc1ccc2c(Nc3ccc(Cl)cc3)nccc2c1Nc1ncccc1-c1ncnc2[nH]cnc12.Cl.Cl.Cl
inhibition in vivo at 2 mg/kg (Mus musculus): 69%
IC50 [1]: 83 nM
Activity [2]: 100%
Activity [3]: 88%
Activity [4]: 100%
Activity [5]: 86%
Activity [6]: 28%
Activity [7]: 95%
Activity [8]: 100%
Activity [9]: 96%
Activity [10]: 100%
Activity [11]: 97%
Activity [12]: 77%
Activity [13]: 100%
Activity [14]: 100%
Activity [15]: 94%
Activity [16]: 90%
Activity [17]: 100%
Activity [18]: 80%
Activity [19]: 86%
Activity [20]: 100%
Activity (A-375): 85%
Activity [21]: 45%
Activity [22]: 71%
Activity [23]: 100%
Activity [24]: 100%
Activity [25]: 88%
Activity [26]: 96%
Activity [27]: 100%
Activity [28]: 85%
Activity [29]: 100%
Activity [30]: 98%
Activity [31]: 88%
Activity [32]: 94%
Activity [33]: 100%
Activity [34]: 100%
Activity [35]: 100%
